Laboratory results published in patent publication US20240067617A1 (Albireo AB, priority 2022, published 2024).

Assays:
hLBAT = target: T1, hLBAT (Homo sapiens, UniProt Q14973); experiment: LBAT (h/m) assay: 3H-taurocholic acid uptake in human LBAT-overexpressing cells; assay type: cell-based; details: 0.3 μM 3H-taurocholic acid + 7.5 μM cold taurocholic acid, 20 minutes at 37° C.
T1 construct: expressed in transfected cells; kept under Geneticin selection
T1 sequence (Q14973 1-349): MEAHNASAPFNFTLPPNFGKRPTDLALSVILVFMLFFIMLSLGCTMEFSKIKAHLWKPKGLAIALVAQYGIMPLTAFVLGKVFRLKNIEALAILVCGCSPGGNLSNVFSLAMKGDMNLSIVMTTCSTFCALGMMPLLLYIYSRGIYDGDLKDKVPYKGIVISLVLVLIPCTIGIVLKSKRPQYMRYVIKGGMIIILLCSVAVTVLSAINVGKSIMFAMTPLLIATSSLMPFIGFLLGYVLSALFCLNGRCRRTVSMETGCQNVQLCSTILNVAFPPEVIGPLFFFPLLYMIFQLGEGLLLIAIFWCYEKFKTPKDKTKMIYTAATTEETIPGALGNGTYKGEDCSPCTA
Method: LBAT (h/m) Assay Protocol
20,000 cells (Human or Mouse LBAT-overexpressing cells) were seeded in 96-wells plate (Corning CLS3809) in 100 μL MEM-alpha medium (Gibco 12571-063) supplemented with 10% FBS (Gibco 10438026) containing Geneticin (Gibco 10131-027) (1 mg/mL) and incubated at 37° C. in 5% CO2 for 24 hours. After incubation, media was decanted from the wells and cells were washed two times with 300 μL of basal MEM-alpha medium (FBS-free). After decanting basal MEM-alpha medium each time, plates were tapped against paper towel to ensure maximum removal of residual media. For human LBAT, incubation mix was prepared by adding test inhibitor dilutions (3-fold serial dilution in DMSO (Sigma D2650), 10 points) in MEM-alpha (without FBS) containing 0.3 μM 3H-taurocholic acid (ARC ART-1368) and 7.5 μM cold taurocholic acid (Sigma T4009) (maintaining 0.2% final DMSO concentration). For mouse LBAT, incubation mix was prepared by adding test inhibitor dilutions (3-fold serial dilution in DMSO, 10 points) in MEM-alpha (without FBS) containing 0.3 μM 3H-taurocholic acid and 25 μM cold taurocholic acid maintaining 0.2% final DMSO concentration). 50 μL of incubation mix containing test inhibitors was then added to the wells (in duplicate) and the plates were incubated for 20 minutes in a CO2 incubator at 37° C. After incubation, the reaction was stopped by keeping the plates on ice water mix for 2-3 minutes and then the incubation mix was aspirated completely from the wells. The wells were washed two times with 250 μL of chilled unlabelled 1 mM taurocholic acid dissolved in HEPES (Gibco 15630080)-buffered (10 mM) HBSS (Gibco 14175079) (pH 7.4). The plates were tapped against a paper towel after every wash to ensure maximum removal of blocking buffer.
100 μL of MicroScint-20 (PerkinElmer 6013621) was added to the wells and kept overnight at RT before reading the plates in TopCount NXT™ Microplate Scintillation and Luminescence Counter from PerkinElmer under 3H Test protocol (set at 120 seconds reading time per well, with normal plate orientation).
(§1) Preparation of Test Compound Dilutions
(§2) All test compounds were provided in powder form at RT. 10 mM DMSO stocks of the test compounds were prepared, aliquoted and stored at −20° C. From the 10 mM DMSO stock of the compounds, a 3-fold serial dilution in DMSO was prepared to get a total of 10 dilutions of the test compounds. 0.5 μL of this dilution in DMSO was added to 250 μL of FBS-free basal media containing 3H-taurocholic acid and cold taurocholic acid to prepare the incubation mixture.

hIBAT = target: T2, hIBAT (Homo sapiens, UniProt Q12908); experiment: IBAT (h/m) assay: 3H-taurocholic acid uptake in human IBAT-overexpressing cells; assay type: cell-based; details: 0.25 μM 3H-taurocholic acid + 5 μM cold taurocholic acid, 20 minutes at 37° C., highest test concentration 10 μM
T2 construct: expressed in transfected cells; kept under Puromycin selection
T2 sequence (Q12908 1-348): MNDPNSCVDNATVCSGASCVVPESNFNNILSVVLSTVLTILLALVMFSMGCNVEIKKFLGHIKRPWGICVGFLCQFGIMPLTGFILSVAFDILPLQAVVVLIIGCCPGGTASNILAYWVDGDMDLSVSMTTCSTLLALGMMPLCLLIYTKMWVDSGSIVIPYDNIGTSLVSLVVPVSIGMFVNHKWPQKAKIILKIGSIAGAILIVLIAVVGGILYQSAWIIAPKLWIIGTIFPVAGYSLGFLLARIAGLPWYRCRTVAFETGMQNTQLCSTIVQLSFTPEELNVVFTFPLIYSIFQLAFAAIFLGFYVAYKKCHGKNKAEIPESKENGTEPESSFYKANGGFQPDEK
Method: IBAT (h/m) Assay Protocol
10,000 cells (Human or Mouse IBAT-overexpressing cells) were seeded in 96-wells plate (Corning CLS3809) in 200 μL MEM-alpha medium (Gibco 12571-063) supplemented with 10% FBS (Gibco 10438026) containing Puromycin (Gibco A1113803) (10 μg/mL) and incubated at 37° C. in 5% CO2 for 48 hours. After incubation, media was decanted from the wells and cells were washed two times with 300 μL of basal MEM-alpha medium (FBS-free). After decanting basal MEM-alpha medium each time, plates were tapped against paper towel to ensure maximum removal of residual media. Test inhibitor dilutions (highest test concentration being 10 μM, 3-fold serial dilution, 10 points) prepared in DMSO (Sigma D2650) were added in incubation mix (maintaining 0.2% final DMSO concentration) containing 0.25 μM 3H-taurocholic acid (ARC ART-1368) and 5 μM of cold taurocholic acid (Sigma T4009). 50 μL of incubation mix containing test inhibitors was then added to the wells (in duplicate) and the plates were incubated for 20 minutes in a CO2 incubator at 37° C. After incubation, the reaction was stopped by keeping the plates on ice water mix for 2-3 minutes and then the incubation mix was aspirated completely from the wells. The wells were washed two times with 250 μL of chilled unlabelled 1 mM taurocholic acid dissolved in HEPES (Gibco 15630080)-buffered (10 mM) HBSS (Gibco 14175079) (pH 7.4). The plates were tapped against a paper towel after every wash to ensure maximum removal of blocking buffer.
100 μL of MicroScint-20 (PerkinElmer 6013621) was added to the wells and kept overnight at RT before reading the plates in TopCount NXT™ Microplate Scintillation and Luminescence Counter from PerkinElmer under 3H Test protocol (set at 120 seconds reading time per well).
as §1, §2

Row | IC50 (hLBAT) [nM] | IC50 (hIBAT) [nM] | Compound
1 | 134 | > 1110 | CCCCC1(C)CN(c2ccccc2)c2cc(OC)c(CSC(C)(C)C(=O)O)cc2S(=O)(=O)C1 (racemic) [Example 41, 2-(((3-butyl-7-methoxy-3-methyl-1,1-dioxido-5-phenyl-2,3,4,5-tetrahydro-1,5-benzothiazepin-8-yl)methyl)thio)-2-methylpropanoic acid]
2 | > 1000 | 5.2 | CCCCC1(CC)CN(c2ccccc2)c2cc(OC)c(CSCC(=O)O)cc2S(=O)(=O)N1 (racemic) [Example 44, 2-(((3-butyl-3-ethyl-7-methoxy-1,1-dioxido-5-phenyl-2,3,4,5-tetrahydro-1,2,5-benzothiadiazepin-8-yl)methyl)thio)acetic acid]
3 | > 1000 | 14 | CCCCC1(CC)CN(c2ccccc2)c2cc(S(C)(=O)=O)c(CSCC(=O)O)cc2S(=O)(=O)N1 (racemic) [Example 47, 2-(((3-butyl-3-ethyl-7-(methylsulfonyl)-1,1-dioxido-5-phenyl-2,3,4,5-tetrahydro-1,2,5-benzothiadiazepin-8-yl)methyl)thio)acetic acid]
4 | > 10000 | 7.7 | CCCCC1(C)CN(c2ccccc2)c2cc(OC)c(CSCC(=O)O)cc2S(=O)(=O)C1 (single isomer, unassigned) [28, enantiomer 1]
5 | > 10000 | 532 | CCCCC1(C)CN(c2ccccc2)c2cc(OC)c(CSCC(=O)O)cc2S(=O)(=O)C1 (single isomer, unassigned) [28, enantiomer 2]
6 | > 10000 | > 10000 | CCCCC1CN(c2ccc(F)cc2)c2cc(OC)c(CSCC(=O)O)cc2S(=O)(=O)N1C (single isomer, unassigned) [30, enantiomer 1]
7 | 200 | 349 | CCCCC1CN(c2ccc(F)cc2)c2cc(OC)c(CSCC(=O)O)cc2S(=O)(=O)N1C (single isomer, unassigned) [30, enantiomer 2]
8 | 110 | 161 | CCCCC1(CC)CN(c2ccc(F)cc2)c2cc(OC)c(CSC(C)(C)C(=O)O)cc2S(=O)(=O)C1 (single isomer, unassigned) [34, enantiomer 1]
9 | 155 | 1960 | CCCCC1(CC)CN(c2ccc(F)cc2)c2cc(OC)c(CSC(C)(C)C(=O)O)cc2S(=O)(=O)C1 (single isomer, unassigned) [34, enantiomer 2]
10 | > 10000 | > 10000 | CCCCC1CN(c2ccccc2)c2cc(OC)c(CSCC(=O)O)cc2S(=O)(=O)N1C (single isomer, unassigned) [36, enantiomer 1]

Second part, the molecule before the results:

Row | Compound | IC50 (hLBAT) [nM] | IC50 (hIBAT) [nM]
11 | CCCCC1(CC)CN(c2ccccc2)c2cc(SC)c(CSCC(=O)O)cc2S(=O)(=O)C1 (single isomer, unassigned) [2, enantiomer 2] | 3150 | 2.8
12 | CCCCC1(C)CN(c2ccccc2)c2cc(SC)c(CSCC(=O)O)cc2S(=O)(=O)C1 (single isomer, unassigned) [5, enantiomer 2] | 4400 | 44
13 | CCCCC1(CC)CN(c2ccc(F)cc2)c2cc(SC)c(CSCC(=O)O)cc2S(=O)(=O)C1 (single isomer, unassigned) [7, enantiomer 2] | 4840 | 2.8
14 | CCCCC1(CC)CN(c2ccccc2)c2cc(SC)c(CSCC(=O)O)cc2S(=O)(=O)N1 (single isomer, unassigned) [10, enantiomer 1] | > 3330 | 0.3
15 | CCCCC1CN(c2ccccc2)c2cc(SC)c(CSCC(=O)O)cc2S(=O)(=O)N1C (single isomer, unassigned) [12, enantiomer 1] | > 10000 | 115
16 | CCCCC1CN(c2ccccc2)c2cc(SC)c(CSCC(=O)O)cc2S(=O)(=O)N1C (single isomer, unassigned) [12, enantiomer 2] | 34 | 116
17 | CCCCC1(CC)CN(c2ccccc2)c2cc(OC)c(CSCC(=O)O)cc2S(=O)(=O)C1 (single isomer, unassigned) [14, enantiomer 1] | > 1000 | 1.1
18 | CCCCC1(CC)CN(c2ccccc2)c2cc(OC)c(CSCC(=O)O)cc2S(=O)(=O)C1 (single isomer, unassigned) [14, enantiomer 2] | > 1000 | 64
19 | CCCCC1(CC)CN(c2ccc(F)cc2)c2cc(SC)c(CSC(C)(C)C(=O)O)cc2S(=O)(=O)C1 (single isomer, unassigned) [16, enantiomer 1] | 164 | 10
20 | CCCCC1(CC)CN(c2ccc(F)cc2)c2cc(SC)c(CSC(C)(C)C(=O)O)cc2S(=O)(=O)C1 (single isomer, unassigned) [16, enantiomer 2] | 220 | 659
21 | CCCCC1(C)CN(c2ccccc2)c2cc(SC)c(CSC(C)(C)C(=O)O)cc2S(=O)(=O)C1 (single isomer, unassigned) [19, enantiomer 1] | 194 | 192
22 | CCCCC1(C)CN(c2ccccc2)c2cc(SC)c(CSC(C)(C)C(=O)O)cc2S(=O)(=O)C1 (single isomer, unassigned) [19, enantiomer 2] | 176 | 1870
23 | CCCCC1(CC)CN(c2ccccc2)c2cc(SC)c(CSCC(=O)O)cc2S(=O)(=O)N1C (single isomer, unassigned) [21, enantiomer 1] | 3310 | > 243
24 | CCCCC1(CC)CN(c2ccccc2)c2cc(SC)c(CSCC(=O)O)cc2S(=O)(=O)N1C (single isomer, unassigned) [21, enantiomer 2] | 1900 | > 554
25 | CCCCC1(CC)CN(c2ccccc2)c2cc(OC)c(CSC(C)(C)C(=O)O)cc2S(=O)(=O)C1 (single isomer, unassigned) [26, enantiomer 1] | 104 | 195
26 | CCCCC1(CC)CN(c2ccccc2)c2cc(OC)c(CSC(C)(C)C(=O)O)cc2S(=O)(=O)C1 (single isomer, unassigned) [26, enantiomer 2] | 245 | 5110
